≈ marks a conversion by molar mass, not a printed value.
How the values were obtained:
[1] = Compound solubility in water
acid ceramidase = target: T1, acid ceramidase (Homo sapiens, UniProt Q13510); experiment: Acid ceramidase inhibition, biochemical fluorescent assay with cell lysates overexpressing acid ceramidase, substrate Rbm14-12; details: substrate Rbm14-12 6.3 μM, pH 4.5
T1 construct: Cell lysates overexpressing acid ceramidase were used as the enzyme source; expressed in transfected cells
T1 sequence (Q13510 22-395): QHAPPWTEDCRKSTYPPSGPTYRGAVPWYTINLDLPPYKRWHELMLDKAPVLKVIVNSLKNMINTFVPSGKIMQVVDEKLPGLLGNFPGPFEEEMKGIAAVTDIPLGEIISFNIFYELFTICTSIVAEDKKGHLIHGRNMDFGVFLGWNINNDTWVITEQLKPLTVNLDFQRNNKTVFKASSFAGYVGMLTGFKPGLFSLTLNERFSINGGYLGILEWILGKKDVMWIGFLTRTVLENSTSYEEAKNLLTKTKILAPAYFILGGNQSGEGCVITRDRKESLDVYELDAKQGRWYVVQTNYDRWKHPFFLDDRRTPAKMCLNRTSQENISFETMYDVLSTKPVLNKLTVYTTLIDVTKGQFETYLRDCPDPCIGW
In short: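 Lysate of cells overexpressing acid ceramidase (10 μg protein) preincubated with compound dose series 1 hr at RT in 25 mM NaAC, 100 mM NaCl, pH 4.5, then reacted 1 hr with 6.3 μM Rbm14-12. Stopped with NaIO4/glycine buffer pH 10.6, fluorescence ex360/em446; IC50 by four-parameter fit.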

Compound | solubility [1] [µg/mL] | IC50 (acid ceramidase) [nM]
CC(C)CCNC(=O)n1cnc2c(N3CCCOCC3)cccc21 [Example 173, N-iso-Pentyl-4-(1,4-oxazepan-4-yl)-1H-benzo[d]imidazole-1-carboxamide] | 17 (≈ 51.4 µM) | 200 to 1000
CC(C)CCNC(=O)n1cnc2c(N3CCO[C@@H](Cc4ccccc4)C3)cccc21 [Example 174, (S)-4-(2-Benzylmorpholino)-N-iso-pentyl-1H-benzo[d]imidazole-1-carboxamide] | 1 (≈ 2.46 µM) | 200 to 1000
CC(C)CCNC(=O)n1cnc2c(N3CCC4(CC3)COC4)cccc21 [Example 175, N-iso-Pentyl-4-(2-oxa-7-azaspiro[3.5]nonan-7-yl)-1H-benzo[d]imidazole-1-carboxamide] | 18 (≈ 50.5 µM) | 200 to 1000
CC(C)CCNC(=O)n1cnc2c(N3CC4(COC4)C3)cccc21 [Example 176] | 22 (≈ 67 µM) | 200 to 1000
COC1(C)CN(c2cccc3c2ncn3C(=O)NCCC(C)C)C1 [Example 177, N-iso-Pentyl-4-(3-methoxy-3-methylazetidin-1-yl)-1H-benzo[d]imidazole-1-carboxamide] | 13 (≈ 39.3 µM) | 200 to 1000
CC(C)CCNC(=O)n1cnc2c(C3CCN(C)CC3)cccc21 [Example 182, N-iso-Pentyl-4-(1-methylpiperidin-4-yl)-1H-benzo[d]imidazole-1-carboxamide] | 32 (≈ 97.4 µM) | 200 to 1000
CC(C)(C)CCNC(=O)n1cnc2c(N3CCN(C4CC4)CC3)cccc21 [Example 185, 4-(4-Cyclopropylpiperazin-1-yl)-N-(3,3-dimethylbutyl)-1H-benzo[d]imidazole-1-carboxamide] | 2 (≈ 5.41 µM) | 200 to 1000
COc1nc2ccccc2n1C(=O)NCCCCn1ccc(C(C)(C)C)n1 [Example 187, N-(4-(3-(tert-Butyl)-1H-pyrazol-1-yl)butyl)-2-methoxy-1H-benzo[d]imidazole-1-carboxamide] | 22 (≈ 59.5 µM) | 200 to 1000
COc1nc2cc(N3CCOCC3)ccc2n1C(=O)NCCCCn1ccc(C(C)(C)C)n1 [Example 188a, N-(4-(3-(tert-Butyl)-1H-pyrazol-1-yl)butyl)-2-methoxy-5-morpholino-1H-benzo[d]imidazole-1-carboxamide] | 27 (≈ 59.4 µM) | 200 to 1000
COc1nc2ccc(N3CCOCC3)cc2n1C(=O)NCCCCn1ccc(C(C)(C)C)n1 [Example 188b, N-(4-(3-(tert-butyl)-1H-pyrazol-1-yl)butyl)-2-methoxy-6-morpholino-1H-benzo[d]imidazole-1-carboxamide] | 26 (≈ 57.2 µM) | 200 to 1000
COCCOc1nc2ccc(N3CCOCC3)cc2n1C(=O)NCCCc1ccccc1 [Example 190b, 2-(2-methoxyethoxy)-6-morpholino-N-(3-phenylpropyl)-1H-benzo[d]imidazole-1-carboxamide] | 16 (≈ 36.5 µM) | < 200
COCCOc1nc2ccccc2n1C(=O)NCCCc1ccccc1 [Example 191, 2-(2-Methoxyethoxy)-N-(3-phenylpropyl)-1H-benzo[d]imidazole-1-carboxamide] | 4 (≈ 11.3 µM) | < 200
CN1CCN(c2cccc3c2ncn3C(=O)NCCCc2ccccc2)CC1 [Example 192, 4-(4-Methylpiperazin-1-yl)-N-(3-phenylpropyl)-1H-benzo[d]imidazole-1-carboxamide] | 12 (≈ 31.8 µM) | < 200
COc1nc2cc(C3CCN(C)CC3)ccc2n1C(=O)NCC(C)C [Example 193, N-iso-Butyl-2-methoxy-5-(1-methylpiperidin-4-yl)-1H-benzo[d]imidazole-1-carboxamide] | 39 (≈ 113 µM) | > 1000
COc1nc2cc(N3CCN(C)CC3)ccc2n1C(=O)NCCCc1ccccc1 [Example 194, 2-Methoxy-5-(4-methylpiperazin-1-yl)-N-(3-phenylpropyl)-1H-benzo[d]imidazole-1-carboxamide] | 30 (≈ 73.6 µM) | 200 to 1000
COc1nc2cc(C3CCN(C)CC3)ccc2n1C(=O)NCCCc1ccccc1 [Example 195a, 2-Methoxy-5-(1-methylpiperidin-4-yl)-N-(3-phenylpropyl)-1H-benzo[d]imidazole-1-carboxamide] | 43 (≈ 106 µM) | > 1000
COc1nc2ccc(C3CCN(C)CC3)cc2n1C(=O)NCCCc1ccccc1 [Example 195b, 2-methoxy-6-(1-methylpiperidin-4-yl)-N-(3-phenylpropyl)-1H-benzo[d]imidazole-1-carboxamide] | 39 (≈ 95.9 µM) | > 1000
COc1nc2ccc(N3CCOCC3)cc2n1C(=O)NCCCc1nccs1 [Example 196, 2-Methoxy-6-morpholino-N-(3-(thiazol-2-yl)propyl)-1H-benzo[d]imidazole-1-carboxamide] | 35 (≈ 87.2 µM) | 200 to 1000
CC(C)CCNC(=O)n1cnc2c(N3CCN(C)C(C)C3)cccc21 (centres unmarked) [Example 197, 4-(3,4-Dimethylpiperazin-1-yl)-N-iso-pentyl-1H-benzo[d]imidazole-1-carboxamide] | 28 (≈ 81.5 µM) | 200 to 1000

More lines, now with the values ahead:

solubility [1] [µg/mL] | IC50 (acid ceramidase) [nM] | Compound
2 (≈ 5.66 µM) | < 200 | N#Cc1cc(N2CCOCC2)c2ncn(C(=O)NCCCC3CC3)c2c1 [Example 178, 6-Cyano-N-(3-cyclopropylpropyl)-4-morpholino-1H-benzo[d]imidazole-1-carboxamide]
10 (≈ 29.3 µM) | < 200 | CC(C)CCNC(=O)n1cnc2c(N3CCOCC3)cc(C#N)cc21 [Example 179, 6-Cyano-N-iso-pentyl-4-morpholino-1H-benzo[d]imidazole-1-carboxamide]
23 (≈ 64.9 µM) | < 200 | CC(C)CCNC(=O)n1cnc2c(N3CCN(C)CC3)cc(C#N)cc21 [Example 180, 6-Cyano-N-iso-pentyl-4-(4-methylpiperazin-1-yl)-1H-benzo[d]imidazole-1-carboxamide]
15 (≈ 35.2 µM) | < 200 | COc1nc2ccc(N3CCOCC3)cc2n1C(=O)NCCCC1(C(F)(F)F)CC1 [Example 183a, 2-Methoxy-6-morpholino-N-(3-(1-(trifluoromethyl)cyclopropyl)propyl)-1H benzo[d]imidazole-1-carboxamide]
3 (≈ 7.04 µM) | < 200 | COc1nc2cc(N3CCOCC3)ccc2n1C(=O)NCCCC1(C(F)(F)F)CC1 [Example 183b, 2-methoxy-5-morpholino-N-(3-(1-(trifluoromethyl)cyclopropyl)propyl)-1H-benzo[d]imidazole-1-carboxamide]
10 (≈ 29 µM) | < 200 | CC(C)(C)CCCNC(=O)n1cnc2c(N3CCOCC3)cccc21 [Example 186, N-(4,4-Dimethylpentyl)-4-morpholino-1H-benzo[d]imidazole-1-carboxamide]
2 (≈ 4.9 µM) | < 200 | CCOc1nc2cc(N3CCOCC3)ccc2n1C(=O)NCCCc1ccccc1 [Example 189a, 2-Ethoxy-5-morpholino-N-(3-phenylpropyl)-1H-benzo[d]imidazole-1-carboxamide]
3 (≈ 7.34 µM) | < 200 | CCOc1nc2ccc(N3CCOCC3)cc2n1C(=O)NCCCc1ccccc1 [Example 189b, 2-ethoxy-6-morpholino-N-(3-phenylpropyl)-1H-benzo[d]imidazole-1-carboxamide]
17 (≈ 38.8 µM) | < 200 | COCCOc1nc2cc(N3CCOCC3)ccc2n1C(=O)NCCCc1ccccc1 [Example 190a, 2-(2-Methoxyethoxy)-5-morpholino-N-(3-phenylpropyl)-1H-benzo[d]imidazole-1 carboxamide]

— US20220380319A1 (Bial - R&D Investments, S.A., priority 2019, published 2022)
